Experimental data published in ChEMBL document CHEMBL3351437, “Ralfuranone Is Produced by an Alternative Aryl-Substituted γ-Lactone Biosynthetic Route in Ralstonia solanacearum” (2014).
≈ marks a conversion by molar mass, not a printed value. Calls of active or inactive are those of the source. The calls are words filed in the database; no cut-off is given here.

Columns and labels:
[1] = tested on: Bacillus subtilis; assay: Antimicrobial activity against Bacillus subtilis at 342 uM after 18 hrs by microdilution method; assay type: functional, organism-based
[2] = tested on: Staphylococcus aureus; assay: Antimicrobial activity against Staphylococcus aureus at 342 uM after 18 hrs by microdilution method; assay type: functional, organism-based
[3] = tested on: Staphylococcus aureus; assay: Antimicrobial activity against methicillin-resistant Staphylococcus aureus at 342 uM after 18 hrs by microdilution method; assay type: functional, organism-based
[4] = tested on: Mycolicibacterium vaccae; assay: Antimicrobial activity against Mycobacterium vaccae at 342 uM after 18 hrs by microdilution method; assay type: functional, organism-based
[5] = tested on: Enterococcus faecalis; assay: Antimicrobial activity against vancomycin-resistant Enterococcus faecalis at 342 uM after 18 hrs by microdilution method; assay type: functional, organism-based
[6] = tested on: Penicillium chrysogenum; assay: Antimicrobial activity against Penicillium notatum assessed as inhibition of conidia germination at 342 uM after 18 hrs by microdilution method; assay type: functional, organism-based
[7] = tested on: Bacillus subtilis; assay: Antimicrobial activity against Bacillus subtilis after 18 hrs by microdilution method; assay type: functional
[8] = tested on: Mycolicibacterium vaccae; assay: Antimicrobial activity against Mycobacterium vaccae after 18 hrs by microdilution method; assay type: functional
[9] = tested on: Enterococcus faecalis; assay: Antimicrobial activity against vancomycin-resistant Enterococcus faecalis after 18 hrs by microdilution method; assay type: functional
[10] = tested on: Staphylococcus aureus; assay: Antimicrobial activity against Staphylococcus aureus after 18 hrs by microdilution method; assay type: functional
[11] = tested on: Staphylococcus aureus; assay: Antimicrobial activity against methicillin-resistant Staphylococcus aureus after 18 hrs by microdilution method; assay type: functional
[12] = tested on: Penicillium chrysogenum; assay: Antimicrobial activity against Penicillium notatum assessed as inhibition of conidia germination after 18 hrs by microdilution method; assay type: functional

| Structure (SMILES) | MIC [7] | MIC [8] | MIC [9] | MIC [12] | further results |
| --- | --- | --- | --- | --- | --- |
| O=C1OCC(c2ccccc2)=C1C(O)c1ccccc1 (stereo unspecified) |  |  |  |  | Activity [1]: inactive; Activity [2]: inactive; Activity [3]: inactive; Activity [4]: inactive; Activity [5]: inactive; Activity [6]: inactive |
| O=C(O)c1cn(C2CC2)c2cc(N3CCNCC3)c(F)cc2c1=O [CIPROFLOXACIN] | < 0.05 µg/mL | 0.2 µg/mL | 1.56 µg/mL |  |  |
| O=C(O)C1=C(c2ccccc2)/C(=C/c2ccccc2)C(=O)O1 | 5.3 µM | 10.6 µM | 21.2 µM | 42.4 µM | MIC [10]: 5.3 µM (≈ 1.55 µg/mL); MIC [11]: 5.3 µM (≈ 1.55 µg/mL) |
| C[C@@H]1[C@H](O)[C@@H](C)/C=C/C=C/C=C/C=C/C=C/C=C/C=C/[C@H](O[C@@H]2O[C@H](C)[C@@H](O)[C@H](N)[C@@H]2O)C[C@@H]2O[C@](O)(C[C@@H](O)C[C@@H](O)[C@H](O)CC[C@@H](O)C[C@@H](O)CC(=O)O[C@H]1C)C[C@H](O)[C@H]2C(=O)O [AMPHOTERICIN B] |  |  |  | 0.4 µg/mL |  |
